Marks after values point to notes of the source that are not given here.
How the values were obtained:
[1] = test system: fibroblasts from patients affected by different lysosomal storage diseases; assay: Cell viability, MTT assay; format: cell-based, human; set-up: key to Decrease of Cell Viability (%): N.S.: non significant decrease; conditions: for Decrease of Cell Viability (%): 72 h
Experimental: Fibroblasts from thirteen patients affected by seven different lysosomal storage diseases (Fabry, Gaucher, Hurler, Niemann-Pick type A/B, Sanfilippo A, Sanfilippo B and Tay-Sachs) were cultured in DMEM (Dulbecco's modified Eagles medium) with 10% fetal bovine serum and in the presence of antibiotics (penicillin and streptomycin), at 37° C. with 5% CO2. All reagents were purchased from PAA Laboratories (Velizy-Villacoublay, France). The fibroblasts of the patients were selected on the basis of availability of fibroblasts and measurable residual activity. The use of human samples was approved by the Ethical Committee of Hospital Clinic, Barcelona
Fibroblasts of early passage (between 5 and 9 passages) were plated in 6- or 24-well plates depending on the test and were treated for 72 hours with increasing concentrations (10 nmol/L, 100 nmol/L, 1 μmol/L, 10 μmol/L, 50 μmol/L and 100 μmol/L) of bicalutamide (Sigma-Aldrich, St. Louis, USA) and (R)- and (S)-bicalutamide (Toronto Research Chemicals Inc., Toronto (Ontario), Canada). Cell viability was evaluated in each cell line for each concentration using the 3-[4,5-dimethylthiazol-2-yl]-2,5-diphenyl tetrazolium bromide (MTT) assay (Sigma-aldrich, St. Louis, USA) described by Sumantran V. N. Cellular chemosensitivity assays: an overview. Methods Mol. Biol. (2011), 731, 219-236.
Fibroblasts from thirteen patients with different lysosomal storage diseases (four patients affected by Sanfilippo B disease patients with different genotypes, three Sanfilippo A disease patients with different genotypes, two Tay-Sachs disease patients with the same genotype, one Gaucher disease patient, one Niemann-PickA/B disease patient, one Hurler disease patient and one Fabry disease patient) were independently treated with different concentrations of (R)- and (S)-bicalutamide (50 and 100 μM). Cell viability was evaluated for each treatment in each cell line using the MTT assay.

[2] = cited from earlier work
[3] = Table 3 patient 1, Sanfilippo B fibroblasts, 50 μM
[4] = Table 3 patient 1, Sanfilippo B fibroblasts, 100 μM
[5] = Table 3 patient 2, Sanfilippo B fibroblasts, 50 μM
[6] = Table 3 patient 2, Sanfilippo B fibroblasts, 100 μM
[7] = Table 3 patient 3, Sanfilippo B fibroblasts, 50 μM
[8] = Table 3 patient 3, Sanfilippo B fibroblasts, 100 μM
[9] = Table 3 patient 4, Sanfilippo B fibroblasts, 50 μM
[10] = Table 3 patient 4, Sanfilippo B fibroblasts, 100 μM
[11] = Table 3 patient 5, Sanfilippo A fibroblasts, 50 μM
[12] = Table 3 patient 5, Sanfilippo A fibroblasts, 100 μM
[13] = Table 3 patient 6, Sanfilippo A fibroblasts, 50 μM
[14] = Table 3 patient 6, Sanfilippo A fibroblasts, 100 μM
[15] = Table 3 patient 7, Sanfilippo A fibroblasts, 50 μM
[16] = Table 3 patient 7, Sanfilippo A fibroblasts, 100 μM
[17] = Table 3 patient 8, Tay-Sachs fibroblasts, 50 μM
[18] = Table 3 patient 8, Tay-Sachs fibroblasts, 100 μM
[19] = Table 3 patient 9, Tay-Sachs fibroblasts, 50 μM
[20] = Table 3 patient 9, Tay-Sachs fibroblasts, 100 μM
[21] = Table 3 patient 10, Gaucher fibroblasts, 50 μM
[22] = Table 3 patient 10, Gaucher fibroblasts, 100 μM
[23] = Table 3 patient 11, Niemann-Pick AB fibroblasts, 50 μM
[24] = Table 3 patient 11, Niemann-Pick AB fibroblasts, 100 μM
[25] = Table 3 patient 12, Hurler fibroblasts, 50 μM
[26] = Table 3 patient 12, Hurler fibroblasts, 100 μM
[27] = Table 3 patient 13, Fabry fibroblasts, 50 μM
[28] = Table 3 patient 13, Fabry fibroblasts, 100 μM

Structure (SMILES)	Decrease of Cell Viability (%) [1, 3]	Decrease of Cell Viability (%) [1, 4]	Decrease of Cell Viability (%) [1, 5]	Decrease of Cell Viability (%) [1, 6]	Decrease of Cell Viability (%) [1, 7]	Decrease of Cell Viability (%) [1, 8]	Decrease of Cell Viability (%) [1, 9]	Decrease of Cell Viability (%) [1, 10]	Decrease of Cell Viability (%) [1, 11]	Decrease of Cell Viability (%) [1, 12]	Decrease of Cell Viability (%) [1, 13]	Decrease of Cell Viability (%) [1, 14]	Decrease of Cell Viability (%) [1, 15]	Decrease of Cell Viability (%) [1, 16]	Decrease of Cell Viability (%) [1, 17]	Decrease of Cell Viability (%) [1, 18]	Decrease of Cell Viability (%) [1, 19]	Decrease of Cell Viability (%) [1, 20]	Decrease of Cell Viability (%) [1, 21]	Decrease of Cell Viability (%) [1, 22]	other results
C[C@@](O)(CS(=O)(=O)c1ccc(F)cc1)C(=O)Nc1ccc(C#N)c(C(F)(F)F)c1 (single isomer, unassigned) [(R)-BICALUTAMIDE (2)]	20* %	37* %	10* %	26* %	40* %	52* %	0%	25* %	N.S.	N.S.	0%	0%	0%	0%	0%	0%	0%	N.S.	0%	24* %	Decrease of Cell Viability (%) [1, 23]: 0%; Decrease of Cell Viability (%) [1, 24]: 0%; Decrease of Cell Viability (%) [1, 25]: 0%; Decrease of Cell Viability (%) [1, 26]: 0%; Decrease of Cell Viability (%) [1, 27]: 0%; Decrease of Cell Viability (%) [1, 28]: 0%; half life in plasma ([2]; in vivo): 1 week; concentrations in plasma at the steady state relative to (S)-bicalutamide ([2]; steady state, (R)- versus (S)-bicalutamide): 100 times
C[C@@](O)(CS(=O)(=O)c1ccc(F)cc1)C(=O)Nc1ccc(C#N)c(C(F)(F)F)c1 [(S)-BICALUTAMIDE (1), (2S)-N-[4-cyano-3-(trifluoromethyl)phenyl]-3-[(4-fluorophenyl)sulfonyl]-2-hydroxy-2-methylpropanamide]	0%	0%	0%	0%	0%	0%	0%	N.S.	0%	0%	0%	0%	0%	0%	0%	0%	0%	N.S.	N.S.	N.S.	Decrease of Cell Viability (%) [1, 23]: N.S.; Decrease of Cell Viability (%) [1, 24]: N.S.; Decrease of Cell Viability (%) [1, 25]: 0%; Decrease of Cell Viability (%) [1, 26]: 0%; Decrease of Cell Viability (%) [1, 27]: 0%; Decrease of Cell Viability (%) [1, 28]: 0%; decrease of cell viability (in words) ([1]; thirteen fibroblast cultures, 50 and 100 μM): did not show any significant decrease of cell viability

— patent publication US11571407B2, “Bicalutamide analogs or (S)-bicalutamide as exocytosis activating compounds for use in the treatment of a lysosomal storage disorder or glycogenosis” (BCN PEPTIDES, S.A., priority 2013, dated 2023)
